Measurements published in patent EP0620225B1, “Cephalosporin derivatives” (Basilea Pharmaceutica AG, priority 1993, dated 1994).
Converted amounts (≈) assume the structure as drawn.

How the values were obtained:
S.viridans group = experiment: In vitro activity against selected species (MIC50, MIC90, range); assay type: cell-based
S.pneumoniae PEN-R = experiment: as above; assay type: cell-based; settings: Streptococcus pneumoniae; for MIC: MIC range
E.faecalis [1] = experiment: as above; assay type: cell-based; settings: Enterococcus faecalis, medium IsoB
S.aureus MSSA = experiment: as above; assay type: cell-based; settings: Staphylococcus aureus, medium MHB (Mueller Hinton Broth)
S.aureus Smith = experiment: Efficacy against systemic infections (septicemia) in mice; assay type: in vivo; settings: Staphylococcus aureus, 96 h, sc 1 and 3 h after challenge, survival day 4
Procedure, shortened: (§1)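 Swiss albino mice (16–20 g) infected i.p. with 4–10× the 48-h LD50 of each strain; compound given p.o. or s.c. at 1 and 3 h post-challenge, plus 5 h for P. aeruginosa BA. Five mice per group; ED50 (mg/kg) by probit analysis of day-4 survival.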

Escherichia coli 25922 = experiment: as above; assay type: in vivo; settings: 96 h, survival day 4
Procedure, shortened: as §1

M.catarrhalis = experiment: In vitro activity against selected species (MIC50, MIC90, range); assay type: cell-based; settings: Moraxella catarrhalis, medium IsoB
P.mirabilis 2117 = experiment: Antibacterial spectrum (MIC), agar dilution; assay type: cell-based; settings: Proteus mirabilis, read-out: MIC
Protocol: (§2) In vitro activity was determined by minimum inhibitory concentration in a microorganism spectum by the agar dilution method in Mueller Hinton agar.

C.freundii 43 = experiment: Antibacterial spectrum (MIC), agar dilution; assay type: cell-based; settings: Citrobacter freundii, read-out: MIC
Protocol: as §2

H.influenzae 1 = experiment: Antibacterial spectrum (MIC), agar dilution; assay type: cell-based; settings: Haemophilus influenzae, read-out: MIC
Protocol: as §2

S.agalactiae QK44 = experiment: Antibacterial spectrum (MIC), agar dilution; assay type: cell-based; settings: Streptococcus agalactiae, read-out: MIC
Protocol: as §2

S.pyogenes B15 = experiment: Antibacterial spectrum (MIC), agar dilution; assay type: cell-based; settings: Streptococcus pyogenes, read-out: MIC
Protocol: as §2

E.cloacae 908SSi = experiment: Antibacterial spectrum (MIC), agar dilution; assay type: cell-based; settings: Enterobacter cloacae, read-out: MIC
Protocol: as §2

P.asaccharolyticus 29743 = experiment: Antibacterial spectrum (MIC), agar dilution; assay type: cell-based; settings: Peptoniphilus asaccharolyticus, read-out: MIC
Protocol: as §2

L.monocytogenes BK23 = experiment: Antibacterial spectrum (MIC), agar dilution; assay type: cell-based; settings: Listeria monocytogenes, read-out: MIC
Protocol: as §2

E.faecalis 6 = experiment: Antibacterial spectrum (MIC), agar dilution; assay type: cell-based; settings: Enterococcus faecalis, read-out: MIC
Protocol: as §2

S.marcescens 69438 = experiment: Antibacterial spectrum (MIC), agar dilution; assay type: cell-based; settings: Serratia marcescens, read-out: MIC
Protocol: as §2

M.morganii 6H-137 = experiment: Antibacterial spectrum (MIC), agar dilution; assay type: cell-based; settings: Morganella morganii, 6H137, read-out: MIC
Protocol: as §2

P.aeruginosa 27853 = experiment: Antibacterial spectrum (MIC), agar dilution; assay type: cell-based; settings: Pseudomonas aeruginosa, read-out: MIC
Protocol: as §2

S.aureus 734 MRSA = experiment: Antibacterial spectrum (MIC), agar dilution; assay type: cell-based; settings: Staphylococcus aureus, read-out: MIC
Protocol: as §2

X.maltophilia 1AC739 = experiment: Antibacterial spectrum (MIC), agar dilution; assay type: cell-based; settings: Stenotrophomonas maltophilia, read-out: MIC
Protocol: as §2

N.meningitidis 69480 = experiment: Antibacterial spectrum (MIC), agar dilution; assay type: cell-based; settings: Neisseria meningitidis, read-out: MIC
Protocol: as §2

C.freundii 902 = experiment: Antibacterial spectrum (MIC), agar dilution; assay type: cell-based; settings: Citrobacter freundii, read-out: MIC
Protocol: as §2

S.viridans group 016 = experiment: Antibacterial spectrum (MIC), agar dilution; assay type: cell-based; settings: Streptococcus viridans, read-out: MIC
Protocol: as §2

B.fragilis ATCC25285 = experiment: Antibacterial spectrum (MIC), agar dilution; assay type: cell-based; settings: Bacteroides fragilis, read-out: MIC
Protocol: as §2

K.pneumoniae 418 = experiment: Antibacterial spectrum (MIC), agar dilution; assay type: cell-based; settings: Klebsiella pneumoniae, read-out: MIC
Protocol: as §2

S.aureus 6538 = experiment: Antibacterial spectrum (MIC), agar dilution; assay type: cell-based; settings: Staphylococcus aureus, read-out: MIC
Protocol: as §2

C.difficile ZH1 = experiment: Antibacterial spectrum (MIC), agar dilution; assay type: cell-based; settings: Clostridioides difficile, read-out: MIC
Protocol: as §2

M.catarrhalis RA21 = experiment: Antibacterial spectrum (MIC), agar dilution; assay type: cell-based; settings: Moraxella catarrhalis, read-out: MIC
Protocol: as §2

P.vulgaris 1028 = experiment: Antibacterial spectrum (MIC), agar dilution; assay type: cell-based; settings: Proteus vulgaris, read-out: MIC
Protocol: as §2

E.cloacae 908R = experiment: Antibacterial spectrum (MIC), agar dilution; assay type: cell-based; settings: Enterobacter cloacae, read-out: MIC
Protocol: as §2

Acinetobacter sp.51-156 = experiment: Antibacterial spectrum (MIC), agar dilution; assay type: cell-based; settings: SP.51156, read-out: MIC
Protocol: as §2

S.pneumoniae Q19 = experiment: Antibacterial spectrum (MIC), agar dilution; assay type: cell-based; settings: Streptococcus pneumoniae, read-out: MIC
Protocol: as §2

E.coli 25922 = experiment: Antibacterial spectrum (MIC), agar dilution; assay type: cell-based; settings: Escherichia coli, read-out: MIC
Protocol: as §2

E.faecium = experiment: In vitro activity against selected species (MIC50, range); assay type: cell-based; settings: Enterococcus faecium, medium MHA
Protocol: as §2

S.aureus MRSA = experiment: In vitro activity against selected species (MIC50, MIC90, range); assay type: cell-based; settings: Staphylococcus aureus, medium MHA (Mueller Hinton Agar) +NaCl
Protocol: as §2

E.faecalis [2] = experiment: as above; assay type: cell-based; settings: Enterococcus faecalis, medium MHA
Protocol: as §2

[3] = medium IsoB (Isosensitest Broth)

For C=CC1=C(C(=O)O)N2C(=O)[C@@H](NC(=O)/C(=N\O)c3csc(N)n3)[C@H]2SC1 [Cefdinir, reference compound], the Range (S.viridans group; MIC range, medium IsoB) was <0.12 to 128 µg/mL, the MIC50 (S.viridans group; Streptococcus viridans) was 8 µg/mL (≈ 20.2 µM) and the MIC90 (S.viridans group; Streptococcus viridans) was 16 µg/mL (≈ 40.5 µM). It also gave an MIC (S.pneumoniae PEN-R; [3]) of 0.1 to 8 µg/mL (≈ 0.253 to 20.2 µM), an MIC (S.pneumoniae PEN-R; medium IsoB + 20% serum) of 0.1 to 8 µg/mL and an MIC50 (S.pneumoniae PEN-R; [3]) of 2 µg/mL (≈ 5.06 µM). For the same molecule, the MIC90 (S.pneumoniae PEN-R; [3]) was 4 µg/mL (≈ 10.1 µM), the MIC50 (S.pneumoniae PEN-R; medium IsoB + 20% serum) was 4 µg/mL and the MIC (E.faecalis [1]; MIC range) was 1 to 64 µg/mL (≈ 2.53 to 162 µM). The MIC50 (E.faecalis [1]) was 8 µg/mL (≈ 20.2 µM), the MIC90 (E.faecalis [1]) was 32 µg/mL (≈ 80.9 µM) and the MIC (S.aureus MSSA; MIC range) was 0.5 to 4 µg/mL (≈ 1.26 to 10.1 µM). For the same molecule, the MIC50 (S.aureus MSSA) was 1 µg/mL (≈ 2.53 µM), the MIC90 (S.aureus MSSA) was 2 µg/mL (≈ 5.06 µM) and the ED50 (S.aureus Smith) was < 1 mg/kg. For the same molecule, the ED50 (Escherichia coli 25922; Escherichia coli 25922, po (orally) 1 and 3 h after challenge) was 1.8 mg/kg, the ED50 (Escherichia coli 25922; Escherichia coli, E.coli 25922, sc 1 and 3 h after challenge) was < 1 mg/kg and the MIC (M.catarrhalis; MIC range) was 0.25 to 0.5 µg/mL (≈ 0.632 to 1.26 µM). It also gave an MIC50 (M.catarrhalis) of 0.25 µg/mL (≈ 0.632 µM), an MIC90 (M.catarrhalis) of 0.5 µg/mL (≈ 1.26 µM) and an MIC (P.mirabilis 2117) of 0.12 µg/mL (≈ 0.303 µM). For the same molecule, the MIC (C.freundii 43) was > 32 µg/mL, the MIC (H.influenzae 1) was 0.5 µg/mL (≈ 1.26 µM) and the MIC (S.agalactiae QK44) was 0.25 µg/mL (≈ 0.632 µM). For the same molecule, the MIC (S.pyogenes B15) was ≤ 0.06 µg/mL, the MIC (E.cloacae 908SSi) was 32 µg/mL (≈ 80.9 µM) and the MIC (P.asaccharolyticus 29743) was ≤ 0.12 µg/mL. The MIC (L.monocytogenes BK23) was 16 µg/mL (≈ 40.5 µM), the MIC (E.faecalis 6) was 8 µg/mL (≈ 20.2 µM) and the MIC (S.marcescens 69438) was 16 µg/mL (≈ 40.5 µM). The MIC (M.morganii 6H-137) was 8 µg/mL (≈ 20.2 µM), the MIC (P.aeruginosa 27853) was > 32 µg/mL and the MIC (S.aureus 734 MRSA) was > 32 µg/mL. The MIC (X.maltophilia 1AC739) was > 32 µg/mL, the MIC (N.meningitidis 69480) was ≤ 0.06 µg/mL and the MIC (C.freundii 902) was 16 µg/mL (≈ 40.5 µM). For the same molecule, the MIC (S.viridans group 016) was 2 µg/mL (≈ 5.06 µM), the MIC (B.fragilis ATCC25285) was 32 µg/mL (≈ 80.9 µM) and the MIC (K.pneumoniae 418) was 0.12 µg/mL (≈ 0.303 µM). For the same molecule, the MIC (S.aureus 6538) was 0.5 µg/mL (≈ 1.26 µM), the MIC (C.difficile ZH1) was 32 µg/mL (≈ 80.9 µM) and the MIC (M.catarrhalis RA21) was 1 µg/mL (≈ 2.53 µM). For the same molecule, the MIC (P.vulgaris 1028) was 1 µg/mL (≈ 2.53 µM), the MIC (E.cloacae 908R) was > 32 µg/mL and the MIC (Acinetobacter sp.51-156) was > 32 µg/mL. The MIC (S.pneumoniae Q19) was 0.25 µg/mL (≈ 0.632 µM), the MIC (E.coli 25922) was 0.25 µg/mL (≈ 0.632 µM) and the MIC50 (E.faecium) was 16 µg/mL (≈ 40.5 µM). The MIC50 (S.aureus MRSA) was > 32 µg/mL, the MIC90 (S.aureus MRSA) was > 32 µg/mL and the MIC (E.faecalis [2]; MIC range) was 4 to 32 µg/mL (≈ 10.1 to 80.9 µM). It also gave an MIC50 (E.faecalis [2]) of 8 µg/mL (≈ 20.2 µM) and an MIC90 (E.faecalis [2]) of 16 µg/mL (≈ 40.5 µM).
